Data published in the supplement of paper PMC10307832.

Compound: COc1cccc2c1C(=O)c1c(O)c3c(c(O)c1C2=O)C[C@@](O)(C(=O)CO)C[C@@H]3O[C@H]1C[C@H](N)[C@H](O)[C@H](C)O1 [Doxorubicin] + O=C(CCCCCCC(=O)Nc1ccccc1)NO [Vorinostat] (partner 1 µM)
Assay: relative viability (nuclei count vs DMSO), 5 days (fraction); higher = more cells survive
Details: first compound 0.001 µM
Outline: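 For relative viability, nuclei counts in treated wells were divided by those in vehicle wells. Lung cancer cell lines had been pin-tool dosed in 1536-well plates the day after seeding and cultured for 5 days, then fixed and stained in one step (final 0.05% Triton X-100, 1% formaldehyde, 1 ug/ml Hoechst) and imaged at 4×. Doses were one drug alone or a fixed anchor-drug dose plus five library-drug doses (not always all listed) in √10 steps, and values are duplicate-plate medians.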

| Cell Line | relative viability |
| --- | --- |
| SK-LU-1 | 0.719 |
| SW 1573 | 0.725 |
| LCLC-97TM1 | 0.785 |
| NCI-H661 | 0.737 |
| NCI-H2228 | 0.759 |
| EMC-BAC-2 | 0.872 |
| NCI-H2087 | 0.327 |
| HCC-44 | 1.1 |
| NCI-H727 | 1.33 |
| LK-2 | 0.318 |
| NCI-H2126 | 0.725 |
| NCI-H1648 | 0.421 |
| COR-L23 | 0.48 |
| COR-L 105 | 0.707 |
| LC-2-ad | 0.699 |
| LU99A | 0.518 |
| NCI-H358 | 0.838 |
| IA-LM | 0.837 |
| NCI-H522 | 0.869 |
| NCI-H1395 | 0.551 |
| NCI-H1944 | 0.554 |
| NCI-H2170 | 0.737 |
| ABC-1 | 1.25 |
| SK-MES-1 | 1.04 |

Same assay, conditions: first compound 0.003162 µM

| Cell Line | relative viability |
| --- | --- |
| NCI-H2342 | 0.845 |
| RERF-LC-KJ | 0.721 |
| NCI-H1651 | 0.591 |
| NCI-H1734 | 0.815 |
| NCI-H2009 | 0.77 |
| NCI-H596 | 0.594 |
| SK-LU-1 | 0.87 |
| SW 1573 | 0.481 |
| LCLC-97TM1 | 0.909 |
| NCI-H661 | 0.82 |
| NCI-H2228 | 0.43 |
| EMC-BAC-2 | 0.311 |
| NCI-H2087 | 1.08 |
| HCC-44 | 1.15 |
| NCI-H727 | 1.09 |
| LK-2 | 0.311 |
| NCI-H2126 | 0.839 |

| Cell Line | relative viability |
| --- | --- |
| NCI-H1648 | 0.376 |
| NCI-H1793 | 0.867 |
| H3255 | 0.913 |
| COR-L23 | 0.395 |
| COR-L 105 | 0.788 |
| LC-2-ad | 0.714 |
| LU99A | 0.474 |
| NCI-H358 | 0.679 |
| IA-LM | 1.21 |
| NCI-H522 | 0.93 |
| SW 900 | 0.452 |
| NCI-H1395 | 0.688 |
| NCI-H1944 | 0.632 |
| NCI-H2170 | 0.939 |
| ABC-1 | 0.999 |
| SK-MES-1 | 1.15 |

Same assay, conditions: first compound 0.01 µM

| Cell Line | relative viability |
| --- | --- |
| NCI-H2342 | 0.692 |
| RERF-LC-KJ | 0.632 |
| NCI-H1651 | 0.569 |
| NCI-H1734 | 0.747 |
| NCI-H2009 | 0.738 |
| NCI-H596 | 0.641 |
| SK-LU-1 | 0.674 |
| SW 1573 | 0.233 |
| LCLC-97TM1 | 0.73 |
| NCI-H661 | 0.695 |
| NCI-H2228 | 0.46 |
| EMC-BAC-2 | 0.241 |
| NCI-H2087 | 0.746 |
| HCC-44 | 1.1 |
| LK-2 | 0.266 |
| NCI-H2126 | 0.8 |

| Cell Line | relative viability |
| --- | --- |
| NCI-H1648 | 0.468 |
| NCI-H1793 | 0.728 |
| H3255 | 0.698 |
| COR-L23 | 0.356 |
| COR-L 105 | 0.773 |
| LC-2-ad | 0.624 |
| LU99A | 0.442 |
| NCI-H358 | 0.407 |
| IA-LM | 0.937 |
| NCI-H522 | 0.716 |
| SW 900 | 0.394 |
| NCI-H1395 | 0.825 |
| NCI-H1944 | 0.541 |
| NCI-H2170 | 0.872 |
| ABC-1 | 0.908 |
| SK-MES-1 | 0.996 |

Same assay, conditions: first compound 0.03162 µM

| Cell Line | relative viability |
| --- | --- |
| NCI-H2342 | 0.535 |
| RERF-LC-KJ | 0.469 |
| NCI-H1651 | 0.533 |
| NCI-H1734 | 0.558 |
| NCI-H2009 | 0.534 |
| NCI-H596 | 0.605 |
| SK-LU-1 | 0.494 |
| SW 1573 | 0.109 |
| LCLC-97TM1 | 0.707 |
| NCI-H661 | 0.577 |
| NCI-H2228 | 0.374 |
| EMC-BAC-2 | 0.22 |
| NCI-H2087 | 0.75 |
| HCC-44 | 1.12 |
| NCI-H727 | 1.13 |
| LK-2 | 0.23 |
| NCI-H2126 | 0.751 |

| Cell Line | relative viability |
| --- | --- |
| NCI-H1648 | 0.285 |
| NCI-H1793 | 0.659 |
| H3255 | 0.88 |
| COR-L23 | 0.252 |
| COR-L 105 | 0.559 |
| LC-2-ad | 0.637 |
| LU99A | 0.409 |
| NCI-H358 | 0.138 |
| IA-LM | 0.946 |
| NCI-H522 | 0.786 |
| SW 900 | 0.346 |
| NCI-H1395 | 0.572 |
| NCI-H1944 | 0.416 |
| NCI-H2170 | 0.702 |
| ABC-1 | 0.509 |
| SK-MES-1 | 0.251 |

Same assay, conditions: first compound 0.1 µM

| Cell Line | relative viability |
| --- | --- |
| NCI-H2342 | 0.696 |
| RERF-LC-KJ | 0.487 |
| NCI-H1651 | 0.495 |
| NCI-H1734 | 0.536 |
| NCI-H2009 | 0.329 |
| NCI-H596 | 0.632 |
| SK-LU-1 | 0.461 |
| SW 1573 | 0.104 |
| LCLC-97TM1 | 0.703 |
| NCI-H661 | 0.495 |
| NCI-H2228 | 0.518 |
| EMC-BAC-2 | 0.114 |
| NCI-H2087 | 0.677 |
| HCC-44 | 1.12 |
| NCI-H727 | 1.19 |
| LK-2 | 0.307 |
| NCI-H2126 | 0.799 |

| Cell Line | relative viability |
| --- | --- |
| NCI-H1648 | 0.467 |
| NCI-H1793 | 0.731 |
| H3255 | 0.428 |
| COR-L23 | 0.157 |
| COR-L 105 | 0.434 |
| LC-2-ad | 0.664 |
| LU99A | 0.519 |
| NCI-H358 | 0.101 |
| IA-LM | 0.975 |
| NCI-H522 | 0.878 |
| SW 900 | 0.26 |
| NCI-H1395 | 0.493 |
| NCI-H1944 | 0.497 |
| NCI-H2170 | 0.881 |
| ABC-1 | 0.309 |
| SK-MES-1 | 0.233 |
